Read-outs that look alike come from different tables or passages of the source.
Columns and labels:
[1] = Semaglutide solubility in the pH range 3.5-7.5 (FIG. 2); assay type: physicochemical
Protocol: FIG. 2 depicts semaglutide solubility in the pH range 3.5-7.5. […] Concentrations below ca. 0.6 mM indicate that no more than the analysed amount of semaglutide can be dissolved when the pH is below about 5.9.

[2] = PK after single s.c. administration via prefilled dual chamber syringe or separate injections; assay type: in vivo, LYD pigs; conditions: for AUC/Dose [mean ± SD]: single s.c. dose
Protocol: Female cross bred domestic pigs (Danish Landrace, Yorkshire and Duroc—LYD pigs), having a body weight of approximately 80-100 kg, were used for exploring PK profiles.
A full plasma concentration-time profile was obtained from each animal, from pre-dosing to 18 days post dosing.
Plasma was analysed by means of Luminescence Oxygen Channelling Immunoassay (LOCI) and Liquid Chromatography-Mass Spectrometry (LCMS) for semaglutide and cagrilintide, respectively. Non-compartmental pharmacokinetic analysis, using individual plasma concentration-time profiles, was performed.

[3] = dual chamber syringe versus separate injections

CC[C@H](C)[C@H](NC(=O)[C@H](Cc1ccccc1)NC(=O)[C@H](CCC(=O)O)NC(=O)[C@H](CCCCNC(=O)COCCOCCNC(=O)COCCOCCNC(=O)CC[C@H](NC(=O)CCCCCCCCCCCCCCCCC(=O)O)C(=O)O)NC(=O)[C@H](C)NC(=O)[C@H](C)NC(=O)[C@H](CCC(N)=O)NC(=O)CNC(=O)[C@H](CCC(=O)O)NC(=O)[C@H](CC(C)C)NC(=O)[C@H](Cc1ccc(O)cc1)NC(=O)[C@H](CO)NC(=O)[C@H](CO)NC(=O)[C@@H](NC(=O)[C@H](CC(=O)O)NC(=O)[C@H](CO)NC(=O)[C@@H](NC(=O)[C@H](Cc1ccccc1)NC(=O)[C@@H](NC(=O)CNC(=O)[C@H](CCC(=O)O)NC(=O)C(C)(C)NC(=O)[C@@H](N)Cc1cnc[nH]1)[C@@H](C)O)[C@@H](C)O)C(C)C)C(=O)N[C@@H](C)C(=O)N[C@@H](Cc1c[nH]c2ccccc12)C(=O)N[C@@H](CC(C)C)C(=O)N[C@H](C(=O)N[C@@H](CCCNC(=N)N)C(=O)NCC(=O)N[C@@H](CCCNC(=N)N)C(=O)NCC(=O)O)C(C)C [semaglutide, N^6,26-{18-[N-(17-carboxyheptadecanoyl)-L-γ-glutamyl]-10-oxo-3,6,12,15-tetraoxa-9,18-diazaoctadecanoyl}-[8-(2-amino-2-propanoic acid),34-L-arginine]human glucagon-like peptide 1(7-37)]
solubility ([1]; pH above about 5.9, read-out: maximum solubility): > 600 µM | solubility ([1]; pH below about 5.9, read-out: solubility (dissolved concentration)): < 600 µM | AUC/Dose % increase (Co-dosing vs. dual-chamber syringe) [2, 3]: ~13% | Cmax % increase (Co-dosing vs. dual-chamber syringe) [2, 3]: ~22% | t½ % increase (Co-dosing vs. dual-chamber syringe) [2, 3]: ~0% | AUC/Dose [mean ± SD] ([2]; group Dual chamber syringe 2.4/2.4): 1560 ± 229 kg·h/L | AUC/Dose [mean ± SD] ([2]; group Mono (separate injections per title)): 1380 ± 78.1 kg·h/L

Reference: patent publication US12527844B2, “Pharmaceutical formulations” (Novo Nordisk A/S, priority 2020, dated 2026)
